Data taken from patent US20220110916A1, “Antioxidant and Use Thereof” (Bioradical Research Institute Corp., priority 2019, published 2022).

Assays:
[1] = test system: rat auricular subcutaneous blood vessel; assay: Vasodilation of rat auricular subcutaneous blood vessel after intravenous administration; type: in vivo
Description: Oxidative stress caused by reactive oxygen species is known to reduce NO production in vascular endothelial cells, resulting in vasoconstriction and decreased blood flow. Therefore, using vasodilation as an indicator, it was examined whether the antioxidant of the present invention scavenges reactive oxygen species in vivo.
Eight-week old or older female rats (Wistar, body weight: approximately 200 g, n=1) were anesthetized by subcutaneous administration of urethane so as to be […] body weight. The hair of the auricles of the rats was then removed and the rats were fixed on a fixing table. […]
BisEP-C3 was dissolved in a saline solution to achieve a concentration of 3 mg/ml. […] Then, the hemodynamic course of the rat auricular subcutaneous blood vessel was photographed and recorded using a microscope at a predetermined period of time (30, 60, 120 or 180 minutes) before and after the administration.
The obtained images were classified into three blood vessel thicknesses (thick: 35-45 μm, medium: 15-20 μm, thin: 7-9 μm) based on the diameter of the blood vessel before administration. […] Further, for each selected site, the relative blood vessel diameter was calculated after the measurement of the blood vessel diameter, with the blood vessel diameter before administration being a reference (1). […]

[2] = test system: neutrophils isolated from the peripheral blood of healthy individuals; assay: Superoxide production amount of PMA-stimulated neutrophils with PBS solutions stored for 10 days vs immediately after preparation; type: cell-based, human; conditions: PBS solution stored for 10 days vs immediately after preparation; 0, 6.25, 12.5, 25, 50, 100 or 20 μmol/l; FIG. 4
Description: First, ED2AP, BisEp-C3, edaravone, BisEp-C1, or BisEp-C1 (H2) was added to a neutrophil of 4×10^5 cells per sample so as to achieve a predetermined concentration (0, 12.5, 25, 50, 100, or 200 μmol/l, or 0, 125, 250, 500, 1250, 2500, or 5000 μmol/l) with 5 μmol of CLA, and then the cell suspension was seeded in flat-bottomed 96-well plates. The volume of the suspension was 200 μl/well, and phenol red free Ca+, Mg+ HBSS was used as the solution. In addition, the neutrophil was stimulated by adding PMA so as to achieve a concentration of 100 ng/ml. After the stimulation, a plate reader (Envision 2104 Multilabel Reader, produced by Perkin Elmer Co., Ltd.) was used to measure the chemiluminescence value over time for 30 minutes with the PMA stimulation time being a reference. The measurement interval was 30 seconds. The sum of the chemiluminescence values obtained every 30 seconds for 30 minutes was taken as the superoxide production amount. In addition, as a control, the superoxide production amount was measured in the same manner except that each compound was not added. The relative value of the superoxide production amount when each compound was added was calculated with the superoxide production amount of the control being 100.
PBS solutions of ED2AP, BisEp-C3, and edaravone were prepared in the same manner as in Example 2 and stored for 10 days. The superoxide production amount was calculated in the same manner as in Example 4 except that the PBS solution after storage was added instead of ED2AP, BisEp-C3, edaravone, BisEp-C1 or BisEp-C1 (H2) so as to achieve a predetermined concentration (0, 6.25, 12.5, 25, 50, 100 or 20 μmol/l) of ED2AP, BisEp-C3 or edaravone. Further, PBS solutions of ED2AP, BisEp-C3, and edaravone were prepared in the same manner as in Example 2, and the superoxide production amount was calculated in the same manner except that the PBS solution immediately after preparation was used. Then, the relative value of the superoxide production amount of each sample was calculated with the superoxide production amount of the sample of 0 μmol/l being 100.

[3] = test system: mesentery blood vessels of rats given lipopolysaccharide; assay: LPS-induced mesenteric bleeding and leukocyte rolling in rats; type: in vivo, rat
Description: Administration of lipopolysaccharide to the mesentery vicinity blood vessels generates reactive oxygen species (ROS), causing vascular disorder and bleeding. Therefore, using the bleeding area as an indicator, it was examined whether the antioxidant of the present invention scavenges ROS in vivo.
Eight-week old or older female rats (Wistar, body weight: approximately 200 g, n=1) were anesthetized by subcutaneous administration of urethane (1.75 g/kg body weight). The rats were then opened and fixed on a fixing table in such a manner that the mesentery of the rats was observable. After the fixing, the fixing table was placed under a microscope (Nikon OPTIphoto, produced by Nikon Corporation) so that the mesentery could be observed. In addition, a catheter was placed in the groin vein of the rat.
1 μg/ml of lipopolysaccharide ((LPS), produced by Sigma-Aldrich Co., Ltd.) derived from Pseudomonas aeruginosa (ATCC27316) was added dropwise once (20 μL, 20 ng/sight) and allowed to stand for 30 minutes. […] In the obtained photograph, the area of the region where bleeding occurred (bleeding area) was detected based on the number of pixels, and then the proportion of the area (bleeding area proportion) occupied per visual field was calculated. […]

SMILES	relative value of the blood vessel diameter ([1]; 3 mg/kg body weight intravenously, 30, 60, 120 or 180 minutes, vs saline control, n=1, FIG. 10)	severity of dilatation of the blood vessel diameter by blood vessel size ([1]; 3 mg/kg intravenously, thick 35-45 μm, medium 15-20 μm, thin 7-9 μm)	superoxide-eliminating ability after storage [2]	bleeding area / bleeding area proportion ([3]; rat mesentery, LPS 20 ng/sight, 1 mg/kg intravenously then 1 mg/kg per hour, up to 180 minutes, n=1, FIGS. 12 and 13)	rolling phenomena of leukocytes in the blood vessel ([3]; rat, after LPS instillation, compared to the control)
CCN1N=C(C)/C(=C\C=C\c2c(C)nn(CC)c2O)C1=O (racemic) [BisEp-C3, 2,4-dihydro-4-[3-(1-ethyl-5-hydroxy-3-methyl-1H-pyrazol-4-yl)-2-propen-1-ylidene]-2-ethyl-5-methyl-3H-pyrazol-3-one]	dilated at any time after administration as compared to the control	remarkably observed in the smaller blood vessels	maintained the superoxide-eliminating ability equivalent to that immediately after preparation even after storage	no bleeding was observed after the LPS administration	a large number of rolling phenomena of leukocytes were observed
CC1=NN(c2ccccc2)C(=O)/C1=C/C=C/c1c(C)nn(-c2ccccc2)c1O (racemic) [ED2AP, 2,4-dihydro-4-[3-(5-hydroxy-3-methyl-1-phenyl-1H-pyrazol-4-yl)-2-propen-1-ylidene]-5-methyl-2-phenyl-3H-pyrazol-3-one]			maintained the superoxide-eliminating ability equivalent to that immediately after preparation even after storage		
